Tests used:
[1] = target: T1, Arabidopsis HPPD (SEQ ID: 53) (Arabidopsis thaliana, UniProt P93836); experiment: HPPD activity assay, Arabidopsis wild-type HPPD; format: biochemical; details: Arabidopsis HPPD; substrate; read-out: michaelis constant Km (4-HPP)
T1 construct: His6 (N); made in house; host or cells: E. coli BL21 (DE3)
T1 sequence (P93836 1-445): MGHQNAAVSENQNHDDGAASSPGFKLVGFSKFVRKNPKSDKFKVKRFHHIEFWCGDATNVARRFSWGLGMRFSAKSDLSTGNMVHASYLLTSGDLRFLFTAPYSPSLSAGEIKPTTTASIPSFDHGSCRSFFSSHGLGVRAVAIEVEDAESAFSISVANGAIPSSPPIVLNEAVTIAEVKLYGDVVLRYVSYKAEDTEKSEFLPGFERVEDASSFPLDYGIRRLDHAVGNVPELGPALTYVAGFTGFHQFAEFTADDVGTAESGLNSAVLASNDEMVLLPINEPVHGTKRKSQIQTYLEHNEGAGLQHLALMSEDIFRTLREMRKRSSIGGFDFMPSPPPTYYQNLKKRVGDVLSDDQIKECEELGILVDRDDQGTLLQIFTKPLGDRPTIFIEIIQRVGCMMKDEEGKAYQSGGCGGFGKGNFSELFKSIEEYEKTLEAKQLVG
Procedure: (§1) HPPD produces homogentisic acid and CO2 from 4-hydroxyphenylpyruvate (4-HPP) and O2. The activity assay for HPPD is based on the analysis of homogentisic acid by reversed phase HPLC.
(§2) The assay mixture can contain 150 mM potassium phosphate buffer pH 7.0, 50 mM L-ascorbic acid, 1 μM FeSO4 and 7 μg of purified enzyme in a total volume of 1 ml.
(§3) Inhibitors are dissolved in DMSO (dimethylsulfoxide) to a concentration of 20 mM or 0.5 mM, respectively. From this stock solution serial five-fold dilutions are prepared in DMSO, which are used in the assay. The respective inhibitor solution accounts for 1% of the assay volume. […] After a preincubation of 30 min the reaction is started by adding 4-HPP to a final concentration of 0.1 mM. The reaction is allowed to proceed for 120 min at room temperature. The reaction is stopped by addition of 100 μl of 4.5 M phosphoric acid.
(§4) Activities are normalized by setting the uninhibited enzyme activity to 100%. IC50 values are calculated using non-linear regression.
(§5) The assay mixture can contain 150 mM potassium phosphate buffer pH 7.0, 50 mM L-ascorbic acid, 100 μM Catalase (Sigma-Aldrich), 1 μM FeSO4 and 0.2 units of purified HPPD enzyme in a total volume of 505 μl. 1 unit is defined as the amount of enzyme that is required to produce 1 nmol of HGA per minute at 20° C.
(§6) Inhibitors are dissolved in DMSO (dimethylsulfoxide) to a concentration of 0.5 mM. From this stock solution serial five-fold dilutions are prepared in DMSO, which are used in the assay. The respective inhibitor solution accounts for 1% of the assay volume. […] Activities are normalized by setting the uninhibited enzyme activity to 100%. IC50 values are calculated using non-linear regression.
(§7) Using methods which are described in the above examples or well known in the art, purified, recombinant wildtype HPPD enzymes are characterized with respect to their kinetic properties and sensitivity towards HPPD inhibiting herbicides. Apparent michaelis constants (Km) and maximal reaction velocities (Vmax) are calculated by non-linear regression with the software GraphPad Prism 5 (GraphPad Software, La Jolla, USA) using a substrate inhibition model.
(§8) Field performance of the HPPD enzyme, which is used as a herbicide tolerance trait, may depend not only on its lack of sensitivity towards HPPD inhibiting herbicides but also on its activity. To assess the potential performance of a herbicide tolerance trait a tolerance index (TI) is calculated using the following formula: […]
Easy comparison and ranking of each trait is enabled by normalizing tolerance indexes on Arabidopsis wild-type HPPD.

[2] = target: T2, Hordeum HPPD (SEQ ID: 2) (Hordeum vulgare, UniProt O48604, A164G/R146V/R147D/R148G); experiment: HPPD activity assay, Hordeum wild-type HPPD; format: biochemical; details: Hordeum HPPD; substrate; read-out: michaelis constant Km (4-HPP)
T2 construct: His (N); made in house; host or cells: E. coli BL21 (DE3)
T2 sequence (O48604 whole entry R146V/R147D/R148G/A164G): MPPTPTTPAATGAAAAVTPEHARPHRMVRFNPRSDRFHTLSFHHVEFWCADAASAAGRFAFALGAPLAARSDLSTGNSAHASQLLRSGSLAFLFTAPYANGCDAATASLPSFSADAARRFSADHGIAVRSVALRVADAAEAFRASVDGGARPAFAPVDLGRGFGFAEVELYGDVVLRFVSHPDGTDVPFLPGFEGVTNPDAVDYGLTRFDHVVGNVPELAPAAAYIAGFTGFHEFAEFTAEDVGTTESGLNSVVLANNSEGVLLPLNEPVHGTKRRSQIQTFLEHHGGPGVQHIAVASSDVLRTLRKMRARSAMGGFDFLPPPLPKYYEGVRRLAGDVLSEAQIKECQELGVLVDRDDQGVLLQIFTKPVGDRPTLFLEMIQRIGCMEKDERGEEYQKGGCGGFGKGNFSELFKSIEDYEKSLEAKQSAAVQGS
Procedure: as §1, §2, §3, §4, §5, §6, §7, §8

**Q.** How did the Km [1] turn out when `O=C(O)C(=O)Cc1ccc(O)cc1` [Inhibitor 4-HPP, 4-hydroxyphenylpyruvate, reference compound] was run?
**A.** The Km was 13 µM.

**Q.** What about the Km [2] of the same compound?
**A.** The Km was 26 µM.

From patent US20140357487A1, “PLANTS HAVING INCREASED TOLERANCE TO HERBICIDES” (BASF SE, priority 2011, published 2014)
